Blank lines part the entries; values can stand above or below the molecule they belong to.
Columns and labels:
[1] = biological target: T1, AT3lsd12 of lasalocid PKS (Streptomyces lasalocidi, UniProt B6ZK65); assay: self-acylation, HPLC-MS of intact protein; assay type: biochemical; conditions: 200 uM acyl-CoA, 20 uM AT, pH 8.0, 25 C, 1 h; covalent acyl-enzyme
T1 construct: gene lsd12; excised AT domain of module 3, synthetic gene, E. coli BL21(DE3), Ni-NTA
Excerpt: (§1) self-acylation, HPLC-MS of intact protein on AT3lsd12 of lasalocid PKS

AT4FkbB of FK520 PKS [2] = biological target: T2, AT4FkbB of FK520 PKS (Streptomyces hygroscopicus, UniProt Q9KIE0); assay: self-acylation, HPLC-MS of intact protein; assay type: biochemical; conditions: 200 uM acyl-CoA, 20 uM AT, pH 8.0, 25 C, 1 h; covalent acyl-enzyme
T2 construct: gene fkbB; excised AT domain of module 4 of FkbB, synthetic gene, E. coli BL21(DE3), Ni-NTA
T2 sequence (Q9KIE0 entry or part of it): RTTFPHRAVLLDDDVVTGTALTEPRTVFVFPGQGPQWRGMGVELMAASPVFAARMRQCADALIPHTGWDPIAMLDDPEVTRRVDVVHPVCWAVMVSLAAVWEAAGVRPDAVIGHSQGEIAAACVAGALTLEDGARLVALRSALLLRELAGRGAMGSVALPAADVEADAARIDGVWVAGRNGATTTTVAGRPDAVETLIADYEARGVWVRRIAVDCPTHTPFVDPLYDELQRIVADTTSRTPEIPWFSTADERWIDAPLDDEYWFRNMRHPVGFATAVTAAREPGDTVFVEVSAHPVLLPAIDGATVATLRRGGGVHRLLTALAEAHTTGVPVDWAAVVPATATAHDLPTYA
Excerpt: (§2) self-acylation, HPLC-MS of intact protein on AT4FkbB of FK520 PKS

[3] = self-acylation, HPLC-MS of intact protein; assay type: biochemical, Streptomyces virginiae; conditions: 200 uM acyl-CoA, 20 uM AT, pH 8.0, 25 C, 1 h; covalent acyl-enzyme
Excerpt: (§3) self-acylation, HPLC-MS of intact protein on AT5monAIV of monensin PKS

AT4FkbB of FK506 PKS [4] = biological target: T3, AT4FkbB of FK506 PKS (Streptomyces tsukubensis, UniProt W8RMH0, V6755K); assay: self-acylation, HPLC-MS of intact protein; assay type: biochemical; conditions: 200 uM acyl-CoA, 20 uM AT, pH 8.0, 25 C, 1 h; covalent acyl-enzyme
T3 construct: gene fkbB; excised AT domain of module 4 of FkbB, E. coli BL21(DE3), Ni-NTA
T3 sequence (W8RMH0 entry or part of it V6755K): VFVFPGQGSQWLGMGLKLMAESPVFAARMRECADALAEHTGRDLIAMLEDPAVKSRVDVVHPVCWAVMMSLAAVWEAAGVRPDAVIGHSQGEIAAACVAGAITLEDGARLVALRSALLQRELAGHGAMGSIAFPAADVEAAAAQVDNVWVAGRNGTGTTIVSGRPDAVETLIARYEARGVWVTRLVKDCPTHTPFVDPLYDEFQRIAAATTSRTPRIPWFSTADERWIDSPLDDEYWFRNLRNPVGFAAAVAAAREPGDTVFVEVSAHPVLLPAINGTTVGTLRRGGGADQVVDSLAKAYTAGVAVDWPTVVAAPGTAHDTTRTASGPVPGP
Excerpt: (§4) self-acylation, HPLC-MS of intact protein on AT4FkbB of FK506 PKS

AT4FkbB of FK506 PKS [5] = biological target: T4, AT4FkbB of FK506 PKS (Streptomyces tsukubensis, UniProt W8RMH0); assay: self-acylation, HPLC-MS of intact protein; assay type: biochemical; conditions: 200 uM acyl-CoA, 20 uM AT, pH 8.0, 25 C, 1 h; covalent acyl-enzyme at Ser89
T4 construct: gene fkbB; excised AT domain of module 4 of FkbB, E. coli BL21(DE3), Ni-NTA
T4 sequence (W8RMH0 entry or part of it): as the sequence (W8RMH0 entry or part of it V6755K) above, with K187V counted along it
Excerpt: as §4

[6] = biological target: T5, AT5monAIV of monensin PKS (Streptomyces virginiae, UniProt Q846X3); assay: trans-acylation of holo-ACP10FkbA, HPLC-MS; assay type: biochemical; conditions: 16 uM acyl-CoA, 16 uM holo-ACP10FkbA, 1.6 uM AT, pH 8.0, 25 C, 2 h
T5 construct: gene monAIV; excised AT domain of module 5, synthetic gene, E. coli BL21(DE3), Ni-NTA
T5 sequence (Q846X3 entry or part of it): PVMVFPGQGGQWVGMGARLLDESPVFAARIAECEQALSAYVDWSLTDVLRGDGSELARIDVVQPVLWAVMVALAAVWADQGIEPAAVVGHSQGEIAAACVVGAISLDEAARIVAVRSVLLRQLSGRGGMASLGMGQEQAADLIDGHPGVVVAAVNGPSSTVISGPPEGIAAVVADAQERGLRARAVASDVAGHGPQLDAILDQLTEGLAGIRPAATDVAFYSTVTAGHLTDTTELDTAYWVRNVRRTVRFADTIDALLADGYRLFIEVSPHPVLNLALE
Excerpt: trans-acylation of holo-ACP10FkbA, HPLC-MS on AT5monAIV of monensin PKS

AT4FkbB of FK520 PKS [7] = biological target: T2, AT4FkbB of FK520 PKS; assay: self-acylation, HPLC-MS of intact protein; assay type: biochemical; conditions: 200 uM acyl-CoA, 20 uM AT, pH 8.0, 25 C, 1 h; covalent acyl-enzyme; remark: listed apart in the source
Excerpt: as §2

AT4FkbB of FK520 PKS [8] = biological target: T2, AT4FkbB of FK520 PKS; assay: self-acylation, HPLC-MS of intact protein; assay type: biochemical; conditions: 200 uM acyl-CoA, 20 uM AT, pH 8.0, 25 C, 1 h; covalent acyl-enzyme; remark: listed apart in the source
Excerpt: as §2

[9] = biological target: T5, AT5monAIV of monensin PKS; assay: self-acylation, HPLC-MS of intact protein; assay type: biochemical; conditions: 200 uM acyl-CoA, 20 uM AT, pH 8.0, 25 C, 1 h; covalent acyl-enzyme
Excerpt: as §3

[10] = biological target: T1, AT3lsd12 of lasalocid PKS; assay: self-acylation, HPLC-MS of intact protein; assay type: biochemical; conditions: 200 uM acyl-CoA, 20 uM AT, pH 8.0, 25 C, 1 h; covalent acyl-enzyme; remark: listed apart in the source
Excerpt: as §1

AT4FkbB of FK506 PKS [11] = biological target: T6, AT4FkbB of FK506 PKS (Streptomyces tsukubensis, UniProt W8RMH0, L6753I/V6754D/V6755T); assay: self-acylation, HPLC-MS of intact protein; assay type: biochemical; conditions: 200 uM acyl-CoA, 20 uM AT, pH 8.0, 25 C, 1 h; covalent acyl-enzyme
T6 construct: gene fkbB; excised AT domain of module 4 of FkbB, E. coli BL21(DE3), Ni-NTA
T6 sequence (W8RMH0 entry or part of it L6753I/V6754D/V6755T): as the sequence (W8RMH0 entry or part of it V6755K) above, with L185I, V186D, K187T counted along it
Excerpt: as §4

AT4FkbB of FK506 PKS [12] = biological target: T7, AT4FkbB of FK506 PKS (Streptomyces tsukubensis, UniProt W8RMH0, Q6687A); assay: self-acylation, HPLC-MS of intact protein; assay type: biochemical; conditions: 200 uM acyl-CoA, 20 uM AT, pH 8.0, 25 C, 1 h; covalent acyl-enzyme
T7 construct: gene fkbB; excised AT domain of module 4 of FkbB, E. coli BL21(DE3), Ni-NTA
T7 sequence (W8RMH0 entry or part of it Q6687A): as the sequence (W8RMH0 entry or part of it V6755K) above, with Q119A, K187V counted along it
Excerpt: as §4

AT4FkbB of FK506 PKS [13] = biological target: T8, AT4FkbB of FK506 PKS (Streptomyces tsukubensis, UniProt W8RMH0, Q6687A/L6753I/V6754D/V6755T/F6771L); assay: self-acylation, HPLC-MS of intact protein; assay type: biochemical; conditions: 200 uM acyl-CoA, 20 uM AT, pH 8.0, 25 C, 1 h; covalent acyl-enzyme
T8 construct: gene fkbB; excised AT domain of module 4 of FkbB, E. coli BL21(DE3), Ni-NTA
T8 sequence (W8RMH0 entry or part of it Q6687A/L6753I/V6754D/V6755T/F6771L): as the sequence (W8RMH0 entry or part of it V6755K) above, with Q119A, L185I, V186D, K187T, F203L counted along it
Excerpt: as §4

T1 sequence (B6ZK65 entry or part of it): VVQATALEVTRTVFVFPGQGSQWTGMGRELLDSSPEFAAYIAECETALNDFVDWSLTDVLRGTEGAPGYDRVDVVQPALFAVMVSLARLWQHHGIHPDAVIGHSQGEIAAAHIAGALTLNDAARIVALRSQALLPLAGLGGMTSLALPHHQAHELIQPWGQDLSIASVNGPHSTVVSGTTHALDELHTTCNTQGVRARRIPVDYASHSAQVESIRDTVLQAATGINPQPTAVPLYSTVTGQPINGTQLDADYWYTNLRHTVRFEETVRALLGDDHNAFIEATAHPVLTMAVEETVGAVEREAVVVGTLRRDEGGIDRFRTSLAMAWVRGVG

Self-acylation reaction (%) / Ethmal-AT4FkbB^∗ [1]: 78.1% | Self-acylation reaction (%) / Ethmal-AT4FkbB^∗ (AT4FkbB of FK520 PKS [2]): 65.1% | Self-acylation reaction (%) / Ethmal-AT4FkbB^∗ [3]: 63.7% | Self-acylation reaction (%) / Ethmal-AT4^∗FkbB (AT4FkbB of FK506 PKS [4]): 32.3% | Self-acylation reaction (%) / Ethmal-AT4^∗FkbB (AT4FkbB of FK506 PKS [5]): 62.0%
SMILES: CCC(C(=O)O)C(=O)SCCNC(=O)CCNC(=O)[C@H](O)C(C)(C)COP(=O)(O)OP(=O)(O)OC[C@H]1O[C@@H](n2cnc3c(N)ncnc32)[C@H](O)[C@@H]1OP(=O)(O)O (some centres unmarked) [ethmal-CoA]

Trans-acylation reaction (%) / MM-ACP10FkbA [6]: 51.2%
SMILES: CC(C(=O)O)C(=O)SCCNC(=O)CCNC(=O)[C@H](O)C(C)(C)COP(=O)(O)OP(=O)(O)OC[C@H]1O[C@@H](n2cnc3c(N)ncnc32)[C@H](O)[C@@H]1OP(=O)(O)O (some centres unmarked) [MM-CoA]

Self-acylation reaction (%) / Allmal-AT4FkbB^∗ [1]: 17.8% | Self-acylation reaction (%) / Allmal-AT4FkbB^∗ (AT4FkbB of FK520 PKS [7]): 61.3% | Self-acylation reaction (%) / Allmal-AT4FkbB^∗ (AT4FkbB of FK520 PKS [8]): 58.2% | Self-acylation reaction (%) / Allmal-AT4FkbB^∗ (AT4FkbB of FK520 PKS [2]): 31.5% | Self-acylation reaction (%) / Allmal-AT4FkbB^∗ [9]: 49.8% | Self-acylation reaction (%) / Allmal-AT4FkbB^∗ [10]: 41.4% | Self-acylation reaction (%) / Allmal-AT4^∗FkbB (AT4FkbB of FK506 PKS [11]): 28.0% | Self-acylation reaction (%) / Allmal-AT4^∗FkbB (AT4FkbB of FK506 PKS [4]): 78.8% | Self-acylation reaction (%) / Allmal-AT4^∗FkbB (AT4FkbB of FK506 PKS [5]): 69.7% | Self-acylation reaction (%) / Allmal-AT4^∗FkbB (AT4FkbB of FK506 PKS [12]): 29.2% | Self-acylation reaction (%) / Allmal-AT4^∗FkbB (AT4FkbB of FK506 PKS [13]): 27.1%
SMILES: C=CCC(C(=O)O)C(=O)SCCNC(=O)CCNC(=O)[C@H](O)C(C)(C)COP(=O)(O)OP(=O)(O)OC[C@H]1O[C@@H](n2cnc3c(N)ncnc32)[C@H](O)[C@@H]1OP(=O)(O)O (some centres unmarked) [allmal-CoA]

Source: publication PMC6090053, “Substrate Specificity of Acyltransferase Domains for Efficient Transfer of Acyl Groups” (Frontiers in Microbiology, 2018)
